Patent publication US7105229B2, “Coated particles, methods of making and using” (priority 1997, dated 2006)

Assay: Solubilization of Paclitaxel in nanostructured phase interior
Format: physicochemical
Method: A nanostructured liquid phase containing the antineoplastic drug Paclitaxel was prepared by solubilizing 0.045 grams of Paclitaxel, 0.57 grams of eugenol, […] of soy lecithin (Epikuron 200), 0.33 grams of glycerol, and 0.06 grams of cupric nitrate with 0.61 grams of methanol, and then evaporating off the methanol in an evaporating dish, with stirring during evaporation. An glycerol-rich upper solution was prepared by dissolving 0.09 grams of potassium iodide, 0.05 grams of Pluronic F-68, 0.44 grams of water and 1.96 grams of glycerol. After overlaying the upper phase, the system was sonicated, resulting in the dispersing of Paclitaxel-containing, nanostructured liquid phase into microparticles coated with crystalline iodine. […] The loading of Paclitaxel in the particle interior was quite high, namely on the order of 3 wt %, which in this case was so high that precipitation of some of the Paclitaxel within the interior of each particle may occur since the solubilization of Paclitaxel in this cubic phase at this high loading was metastable. […]

In the case of `CC(=O)O[C@H]1C(=O)[C@@]2(C)[C@H]([C@H](OC(=O)c3ccccc3)[C@]3(O)C[C@H](OC(=O)[C@H](O)[C@@H](NC(=O)c4ccccc4)c4ccccc4)C(C)=C1C3(C)C)[C@]1(OC(C)=O)CO[C@@H]1C[C@@H]2O` [Paclitaxel], the “concentration of Paclitaxel in the interior at which solubilization is truly stable (thermodynamic equilibrium)” value (eugenol/soy lecithin/glycerol nanostructured phase of Example 36) is reported as no more than 0.7% and the “time taken for precipitation of Paclitaxel at metastable loading” value (loading on the order of 3 wt % of interior) is reported as “hours or even days”.
